Experimental data: patent US20250304576A1 (Cancer Research Technology Limited, priority 2022, published 2025)

Experiments:
Recombinant IKKα = target: T1, Recombinant IKKα (Homo sapiens, UniProt O15111); assay: DELFIA IKKα kinase assay (apparent Ki, Cheng-Prusoff); assay type: biochemical
T1 construct: purchased Millipore, Dundee, UK
T1 sequence (O15111 1-745): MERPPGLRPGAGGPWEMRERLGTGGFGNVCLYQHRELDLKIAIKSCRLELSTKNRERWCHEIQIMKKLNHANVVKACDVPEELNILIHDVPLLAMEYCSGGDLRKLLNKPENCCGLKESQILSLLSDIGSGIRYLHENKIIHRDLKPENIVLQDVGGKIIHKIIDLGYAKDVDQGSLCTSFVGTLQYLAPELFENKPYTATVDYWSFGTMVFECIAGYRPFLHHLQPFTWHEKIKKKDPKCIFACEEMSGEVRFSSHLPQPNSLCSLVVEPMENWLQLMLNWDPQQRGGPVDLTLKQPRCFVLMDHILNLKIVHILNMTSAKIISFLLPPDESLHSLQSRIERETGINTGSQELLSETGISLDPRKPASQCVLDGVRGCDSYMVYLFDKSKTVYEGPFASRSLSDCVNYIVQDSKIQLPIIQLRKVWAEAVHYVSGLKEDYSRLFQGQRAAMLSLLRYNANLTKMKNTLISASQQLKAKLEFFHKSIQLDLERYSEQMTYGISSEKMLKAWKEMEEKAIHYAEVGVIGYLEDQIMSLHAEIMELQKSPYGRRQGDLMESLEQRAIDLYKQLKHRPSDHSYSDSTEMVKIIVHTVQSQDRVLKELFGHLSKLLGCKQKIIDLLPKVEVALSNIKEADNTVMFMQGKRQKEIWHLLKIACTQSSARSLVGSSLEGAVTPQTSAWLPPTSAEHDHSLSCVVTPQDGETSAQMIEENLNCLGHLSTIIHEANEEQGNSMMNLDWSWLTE
Summary of the method: (§1)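 Recombinant IKKα or IKKβ (37 nM) with 0.375 μM biotinylated IκB-α (Ser32) peptide and 40 μM ATP in 40 mM Tris-HCl pH 7.5, 20 mM MgCl2, 60 min at 30° C. Phospho-substrate captured on streptavidin and detected by anti-phospho-IκB-α plus europium anti-mouse IgG time-resolved fluorescence; apparent Ki via Cheng-Prusoff.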

Recombinant IKKβ = target: T2, Recombinant IKKβ (Homo sapiens, UniProt O14920); assay: DELFIA IKKβ kinase assay (apparent Ki, Cheng-Prusoff); assay type: biochemical
T2 construct: purchased Millipore, Dundee, UK
T2 sequence (O14920 1-756): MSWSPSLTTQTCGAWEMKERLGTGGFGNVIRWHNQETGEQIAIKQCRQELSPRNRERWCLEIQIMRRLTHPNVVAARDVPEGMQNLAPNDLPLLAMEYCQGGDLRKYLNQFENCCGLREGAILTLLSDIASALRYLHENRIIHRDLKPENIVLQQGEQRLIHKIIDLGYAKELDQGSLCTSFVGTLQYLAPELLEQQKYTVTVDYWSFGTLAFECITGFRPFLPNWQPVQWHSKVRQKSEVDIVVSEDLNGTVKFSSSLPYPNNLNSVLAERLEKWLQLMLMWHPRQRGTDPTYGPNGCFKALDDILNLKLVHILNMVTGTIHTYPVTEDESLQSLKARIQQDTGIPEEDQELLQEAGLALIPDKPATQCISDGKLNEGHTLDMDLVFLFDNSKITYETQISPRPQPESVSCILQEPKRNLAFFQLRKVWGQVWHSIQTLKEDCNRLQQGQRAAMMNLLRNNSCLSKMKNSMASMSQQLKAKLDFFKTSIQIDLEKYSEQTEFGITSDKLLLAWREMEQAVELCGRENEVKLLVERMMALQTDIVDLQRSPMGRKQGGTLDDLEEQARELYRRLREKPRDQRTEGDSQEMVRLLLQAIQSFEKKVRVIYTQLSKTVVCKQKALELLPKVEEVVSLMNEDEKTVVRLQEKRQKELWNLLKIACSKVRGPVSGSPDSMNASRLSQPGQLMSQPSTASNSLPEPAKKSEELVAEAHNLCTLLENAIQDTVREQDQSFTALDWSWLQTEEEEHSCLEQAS
Summary of the method: as §1

[1] = DELFIA assay (first line of an example)
[2] = non-italicised figure: DELFIA assay

Ki (Recombinant IKKα; [1]) [nM] | Ki (Recombinant IKKβ; [1]) [nM] | Ki (Recombinant IKKα; [2]) [nM] | Ki (Recombinant IKKβ; [2]) [nM] | SMILES
5 | 60 |  |  | Nc1n[nH]c2ccc(-c3ccnc4[nH]c(C(=O)NCCCc5ccccc5)cc34)cc12 [Example 239, 4-(3-Amino-1H-indazol-5-yl)-N-(3-phenylpropyl)-1H-pyrrolo[2,3-b]pyridine-2-carboxamide]
 |  | 100 | > 10000 | Nc1n[nH]c2ccc(-c3ccnc(N[C@H]4CC[C@H](O)CC4)c3)cc12 [Example 24, 5-{2-[(Trans-4-hydroxycyclohexyl)amino]pyridin-4-yl}-1H-indazol-3-amine]
 |  | 3 | 300 | CC(C)C#Cc1cc(-c2ccnc(N)c2)cc2c(N)n[nH]c12 [Example 134, 5-(2-Aminopyridin-4-yl)-7-(3-methylbut-1-yn-1-yl)-1H-indazol-3-amine]
 |  | 1900 | > 10000 | CN(CCCO)c1cc(-c2ccc3[nH]nc(N)c3c2)ccn1 [Example 29, 3-((4-(3-Amino-1H-indazol-5-yl)pyridin-2-yl)(methyl)amino)propan-1-ol]
 |  | 141 | 2800 | CC(C)(C)C#Cc1cc(-c2ccnc(NCC3CC3)c2)cc2c(N)n[nH]c12 [Example 157, 5-(2-((Cyclopropylmethyl)amino)pyridin-4-yl)-7-(3,3-dimethylbut-1-yn-1-yl)-1H-indazol-3-amine]
 |  | 5 | 826 | COC(=O)Nc1cc(-c2cc(C#CC(C)(C)O)c3[nH]nc(N)c3c2)ccn1 [Example 180, Methyl (4-(3-amino-7-(3-hydroxy-3-methylbut-1-yn-1-yl)-1H-indazol-5-yl)pyridin-2-yl)carbamate]
223 | > 3330 |  |  | CC(C)(C)C#Cc1cc(-c2ccnc3[nH]c(C(F)(F)F)nc23)cc2c(N)n[nH]c12 [Example 308, 7-(3,3-dimethylbut-1-yn-1-yl)-5-(2-(trifluoromethyl)-3H-imidazo[4,5-b]pyridin-7-yl)-1H-indazol-3-amine]
 |  | 114 | 1680 | Nc1cc(-c2cc(-c3cccnc3)c3[nH]nc(N)c3c2)ccn1 [Example 127]
 |  | 38 | 4200 | Nc1n[nH]c2ccc(-c3ccnc(NC(=O)Nc4cccc(OCc5ccccc5)c4)c3)cc12 [Example 57, 1-(4-(3-Amino-1H-indazol-5yl)pyridin-2-yl)-3-(3-(benzyloxy)phenyl)urea]
 |  | 56 | 1590 | NC(=O)c1ccc(-c2cc(-c3ccnc(N)c3)cc3c(N)n[nH]c23)cc1 [Example 120, 4-(3-Amino-5-(2-aminopyridin-4-yl)-1H-indazol-7-yl)benzamide]
76 | 528 |  |  | Nc1n[nH]c2c(C#CC3(O)CCCCC3)cc(-c3ccnc4[nH]ccc34)cc12 [Example 208, 1-((3-Amino-5-(1H-pyrrolo[2,3-b]pyridin-4-yl)-1H-indazol-7-yl)ethynyl)cyclohexan-1-ol]
14 | 87 |  |  | COC(=O)Nc1cc(-c2cc(-c3ccc(NC(C)=O)cc3)c3[nH]nc(N)c3c2)ccn1 [Example 326, Methyl (4-(7-(4-acetamidophenyl)-3-amino-1H-indazol-5-yl)pyridin-2-yl)carbamate]
5 | 330 |  |  | Nc1n[nH]c2ccc(-c3ccnc4[nH]c(CNc5ccccc5COc5ccccc5)cc34)cc12 [Example 253, 5-(2-(((2-(Benzyloxy)phenyl)amino)methyl)-1H-pyrrolo[2,3-b]342yridine-4-yl)-1H-indazol-3-amine]
6 | 59 |  |  | Nc1n[nH]c2ccc(-c3ccnc4[nH]c(CNc5ccccc5)cc34)cc12 [Example 252, 5-(2-((Phenylamino)methyl)-1H-pyrrolo[2,3-b]340yridine-4-yl)-1H-indazol-3-amine]
 |  | 122 | 5680 | CC(C)CC(=O)Nc1cc(-c2cc(C#CC(C)(C)C)c3[nH]nc(N)c3c2)ccn1 [Example 171, N-(4-(3-Amino-7-(3,3-dimethylbut-1-yn-1-yl)-1H-indazol-5-yl)pyridine-2-yl)-3-methylbutanamide]
 |  | 76 | 2900 | CC(C)(C)c1ccc(NC(=O)Nc2cc(-c3ccc4[nH]nc(N)c4c3)ccn2)cc1 [Example 64, 1-(4-(3-Amino-1H-indazol-5-yl)pyridin-2-yl)-3-(4-(tert-butyl)phenyl)urea]
 |  | > 10000 | > 10000 | CNC(=O)C#Cc1c(-c2ccc3[nH]nc(N)c3c2)ccnc1N [Example 98, 3-(2-Amino-4-(3-amino-1H-indazol-5-yl)pyridin-3-yl)-N-methylpropiolamide]
 |  | 298 | 23800 | CC(C)(C)C#Cc1cc(-c2ccnc(NC(=O)C3CCCC3)c2)cc2c(N)n[nH]c12 [Example 173, N-(4-(3-Amino-7-(3,3-dimethylbut-1-yn-1-yl)-1H-indazol-5-yl)pyridin-2-yl)cyclopentanecarboxamide]
 |  | 93 | 1780 | Nc1n[nH]c2ccc(-c3ccnc(NC(=O)Nc4cccc(OCc5cccc(F)c5)c4)c3)cc12 [Example 59, 1-(4-(3-Amino-1H-indazol-5-yl)pyridin-2-yl)-3-(3-((3-fIuorobenzyl)oxy)phenyl)urea]
 |  | 17 | 59 | Nc1ccccc1C#Cc1c(-c2ccc3[nH]nc(N)c3c2)ccnc1N [Example 78, 5-(2-Amino-3-((2-aminophenyl)ethynyl)pyridine-4-yl)-1H-indazol-3-amine]
 |  | 22 | 115 | Nc1n[nH]c2ccc(-c3ccnc(NC(=O)Nc4ccc(F)cc4)c3)cc12 [Example 62, 1-(4-(3-Amino-1H-indazol-5-yl)pyridine-2-yl)-3-(4-fluorophenyl)urea]
5 | 285 |  |  | CC(C)(C)N1CCN(Cc2cc3c(-c4ccc5[nH]nc(N)c5c4)ccnc3[nH]2)CC1 [Example 264, 5-(2-((4-(tert-Butyl)piperazin-1-yl)methyl)-1H-pyrrolo[2,3-b]pyridin-4-yl)-1H-indazol-3-amine]
 |  | 26 | 350 | Nc1n[nH]c2ccc(-c3ccnc(NC(=O)c4ccccc4)c3)cc12 [Example 34, N-(4-(3-Amino-1H-indazol-5-yl)pyridin-2-yl)benzamide]
23 | 90 |  |  | Nc1n[nH]c2ccc(-c3ccnc4[nH]c(C(=O)NCCc5ccccc5)cc34)cc12 [Example 238, 4-(3-Amino-1H-indazol-5-yl)-N-phenethyl-1H-pyrrolo[2,3-b]pyridine-2-carboxamide]
 |  | 1790 | > 10000 | Nc1nccc(-c2ccc3[nH]nc(N)c3c2)c1C1CC1 [Example 100, 5-(2-Amino-3-cyclopropylpyridin-4-yl)-1H-indazol-3-amine]
 |  | 22 | 1960 | CC(C)(C)C#Cc1cc(-c2ccnc(NCCC#N)c2)cc2c(N)n[nH]c12 [Example 159, 3-((4-(3-Amino-7-(3,3-dimethylbut-1-yn-1-yl)-1H-indazol-5-yl)pyridin-2-yl)amino)propanenitrile]
366 | 3100 |  |  | Nc1n[nH]c2c(C#CCO)cc(-c3ccnc4[nH]ccc34)cc12 [Example 205, 3-(3-Amino-5-(1H-pyrrolo[2,3-b]pyridin-4-yl)-1H-indazol-7-yl)prop-2-yn-1-ol]
8 | 126 |  |  | Nc1n[nH]c2c(Cl)cc(-c3ccnc4[nH]c(C(=O)NCCN5CCCCC5)cc34)cc12 [Example 274, 4-(3-Amino-7-chloro-1H-indazol-5-yl)-N-(2-(piperidin-1-yl)ethyl)-1H-pyrrolo[2,3-b]pyridine-2-carboxamide]
